This note sets out measurements from patent US12662489B2 (Sitryx Therapeutics Limited, priority 2023, dated 2026).

In assay [1] the target is T1, MTHFD1 recombinant human enzyme (Homo sapiens, UniProt P11586).
T1 sequence (P11586 2-291 limits assumed): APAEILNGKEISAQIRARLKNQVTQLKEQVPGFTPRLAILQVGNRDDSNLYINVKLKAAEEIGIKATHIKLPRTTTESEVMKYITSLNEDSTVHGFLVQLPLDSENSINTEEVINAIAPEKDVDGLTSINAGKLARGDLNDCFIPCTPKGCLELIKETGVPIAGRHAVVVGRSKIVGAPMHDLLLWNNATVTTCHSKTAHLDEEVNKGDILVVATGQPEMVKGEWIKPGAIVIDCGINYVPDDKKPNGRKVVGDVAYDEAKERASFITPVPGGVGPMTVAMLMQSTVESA
The experiment in a line: MTHFD1 inhibition assay (NAD(P)H-Glo luminescence). As to conditions: MTHFD1 IC50, recombinant human enzyme 200 nM, NADP, band.

Assay [2] concerns the target T2, MTHFD2 recombinant human enzyme (Homo sapiens, UniProt P13995).
T2 sequence (P13995 36-350): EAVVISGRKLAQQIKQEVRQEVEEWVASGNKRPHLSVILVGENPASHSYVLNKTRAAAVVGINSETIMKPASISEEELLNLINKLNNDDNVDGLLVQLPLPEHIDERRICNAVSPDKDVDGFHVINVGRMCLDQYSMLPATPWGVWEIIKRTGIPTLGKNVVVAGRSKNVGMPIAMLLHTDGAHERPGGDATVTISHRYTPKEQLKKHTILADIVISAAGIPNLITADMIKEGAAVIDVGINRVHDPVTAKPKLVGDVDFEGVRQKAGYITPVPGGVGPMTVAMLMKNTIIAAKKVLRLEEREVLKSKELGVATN
Description: MTHFD2 inhibition assay (NAD(P)H-Glo luminescence). The conditions noted are these: for MTHFD1/MTHFD2 IC50 ratio: selectivity of MTHFD2 inhibition over MTHFD1, band.

By IC50 is commonly meant the concentration needed to halve the response being measured.

The structures appear in SMILES notation.

For the compound `COC[C@H]1CN(c2ccc3c4c(c(=O)oc3c2C)CN(C(=O)c2ccc(C(=O)NS(=O)(=O)N(C)C)c(N3C5CCC3CC5)c2)CC4)CCN1C` [Example 16, (R)-2-(7-azabicyclo[2.2.1]heptan-7-yl)-N-(N,N-dimethylsulfamoyl)-4-(8-(3-(methoxymethyl)-4-methylpiperazin-1-yl)-7-methyl-5-oxo-1,3,4,5-tetrahydro-2H-chromeno[3,4-c]pyridine-3-carbonyl)benzamide], the IC50 in assay [1] lay in the range of 1 to 10 nM. For the same compound, in assay [2], the IC50 was in the range of 1 to 10 nM and the “MTHFD1/MTHFD2 IC50 ratio” value is “F (<3)”.
With `COC[C@H]1CN(c2ccc3c4c(c(=O)oc3c2C)CN(C(=O)c2cc(Cl)c(C(=O)NS(=O)(=O)C3(C)CC3)c(N3CC5CC5C3)c2)CC4)CCN1C` (stereo partly drawn) [Example 32, 2-(3-azabicyclo[3.1.0]hexan-3-yl)-6-chloro-4-(8-((R)-3-(methoxymethyl)-4-methylpiperazin-1-yl)-7-methyl-5-oxo-1,3,4,5-tetrahydro-2H-chromeno[3,4-c]pyridine-3-carbonyl)-N-((1-methylcyclopropyl)sulfonyl)benzamide], the IC50 in assay [1] is 100 to 1000 nM. In addition, in assay [2], the IC50 was in the range of 10 to 100 nM and the “MTHFD1/MTHFD2 IC50 ratio” value is “J (>30)”.
`COC[C@H]1CN(c2ccc3c4c(c(=O)oc3c2C)CN(C(=O)c2cc(Cl)c(C(=O)NS(=O)(=O)N(C)C)c(N3C5CCC3CC5)c2)CC4)CCN1C` [Example 80, (R)-2-(7-azabicyclo[2.2.1]heptan-7-yl)-6-chloro-N-(N,N-dimethylsulfamoyl)-4-(8-(3-(methoxymethyl)-4-methylpiperazin-1-yl)-7-methyl-5-oxo-1,3,4,5-tetrahydro-2H-chromeno[3,4-c]pyridine-3-carbonyl)benzamide]: the IC50 in assay [1] and in assay [2] was 10 to 100 nM in each case. In addition, the “MTHFD1/MTHFD2 IC50 ratio” value in assay [2] is reported as “G (^ 3 to 9.0)”.
In the case of `COC[C@H]1CN(c2ccc3c4c(c(=O)oc3c2C)CN(C(=O)c2ccc(C(=O)NS(=O)(=O)N3CCCC3)c(OC3CCC3)c2F)CC4)CCN1C(C)C` [Example 170, (R)-2-cyclobutoxy-3-fluoro-4-(8-(4-isopropyl-3-(methoxymethyl)piperazin-1-yl)-7-methyl-5-oxo-1,3,4,5-tetrahydro-2H-chromeno[3,4-c]pyridine-3-carbonyl)-N-(pyrrolidin-1-ylsulfonyl)benzamide], the IC50 in assay [1] was 100 to 1000 nM. Also, in assay [2], the IC50 was in the range of 10 to 100 nM and the “MTHFD1/MTHFD2 IC50 ratio” value is “G (^ 3 to 9.0)”.
For the compound `COC[C@H]1CN(c2cc(C)c3c4c(c(=O)oc3c2C)CN(C(=O)c2ccc(C(=O)NS(=O)(=O)C3(C)CC3)c(N3CCCC(F)(F)C3)c2)CC4)CCN1C` [Example 75, (R)-2-(3,3-difluoropiperidin-1-yl)-4-(8-(3-(methoxymethyl)-4-methylpiperazin-1-yl)-7,10-dimethyl-5-oxo-1,3,4,5-tetrahydro-2H-chromeno[3,4-c]pyridine-3-carbonyl)-N-((1-methylcyclopropyl)sulfonyl)benzamide], the 50% inhibitory concentration (IC50) in assay [1] and in assay [2] was 1 to 10 nM throughout. Besides, in assay [2], the “MTHFD1/MTHFD2 IC50 ratio” value is “G (^ 3 to 9.0)”.
As for `COC[C@H]1CN(c2ccc3c4c(c(=O)oc3c2C)CN(C(=O)c2cc(F)c(C(=O)NS(=O)(=O)N(C)C)c(N3CC5CC5C3)c2)CC4)CCN1C` (stereo partly drawn) [Example 27, 2-(3-azabicyclo[3.1.0]hexan-3-yl)-N-(N,N-dimethylsulfamoyl)-6-fluoro-4-(8-((R)-3-(methoxymethyl)-4-methylpiperazin-1-yl)-7-methyl-5-oxo-1,3,4,5-tetrahydro-2H-chromeno[3,4-c]pyridine-3-carbonyl)benzamide], the IC50 in assay [1] is 1 to 10 nM. In assay [2], the IC50 is 1 to 10 nM and the “MTHFD1/MTHFD2 IC50 ratio” value is on record as “F (<3)”.
Regarding `COC[C@H]1CN(c2cc(C)c3c4c(c(=O)oc3c2C)CN(C(=O)c2cc(OC3CCC3)cc(C(=O)NS(=O)(=O)N3CCCC3)c2)CC4)CCN1C` [Example 164, (R)-3-cyclobutoxy-5-(8-(3-(methoxymethyl)-4-methylpiperazin-1-yl)-7,10-dimethyl-5-oxo-1,3,4,5-tetrahydro-2H-chromeno[3,4-c]pyridine-3-carbonyl)-N-(pyrrolidin-1-ylsulfonyl)benzamide], the IC50 in assay [1] was over 5000 nM. In assay [2], the IC50 fell in the range of 100 to 1000 nM and the “MTHFD1/MTHFD2 IC50 ratio” value was “H (>9.0 to 30)”.
Turning to `CCOc1cc(C(=O)N2CCc3c(c(=O)oc4c(C)c(N5CCN(C)[C@@H](COC)C5)cc(C)c34)C2)c(F)cc1C(=O)NS(=O)(=O)N1CC2(CCC2)C1` [Example 220, (R)-N-((2-azaspiro[3.3]heptan-2-yl)sulfonyl)-2-ethoxy-5-fluoro-4-(8-(3-(methoxymethyl)-4-methylpiperazin-1-yl)-7,10-dimethyl-5-oxo-1,3,4,5-tetrahydro-2H-chromeno[3,4-c]pyridine-3-carbonyl)benzamide], the IC50 in assay [1] was 100 to 1000 nM. Also, in assay [2], the IC50 lay in the range of 10 to 100 nM and the “MTHFD1/MTHFD2 IC50 ratio” value is reported as “H (>9.0 to 30)”.
As for `COC[C@@H]1CN(c2ccc3c4c(c(=O)oc3c2C)CN(C(=O)c2ccc(C(=O)NS(=O)(=O)N3CCCC3)c(OC3CCC3)c2F)CC4)CCN1C` [Example 162, (S)-2-cyclobutoxy-3-fluoro-4-(8-(3-(methoxymethyl)-4-methylpiperazin-1-yl)-7-methyl-5-oxo-1,3,4,5-tetrahydro-2H-chromeno[3,4-c]pyridine-3-carbonyl)-N-(pyrrolidin-1-ylsulfonyl)benzamide], in assay [1], the IC50 was in the range of 100 to 1000 nM. Also, in assay [2], the IC50 was 100 to 1000 nM and the “MTHFD1/MTHFD2 IC50 ratio” value was “F (<3)”.
As to `COC[C@H]1CN(c2cc(C)c3c4c(c(=O)oc3c2C)CN(C(=O)c2cc(N3CCCC3)c(C(=O)NS(=O)(=O)N3CCCC3)cc2F)CC4)CCN1C` [Example 141, (R)-5-fluoro-4-(8-(3-(methoxymethyl)-4-methylpiperazin-1-yl)-7,10-dimethyl-5-oxo-1,3,4,5-tetrahydro-2H-chromeno[3,4-c]pyridine-3-carbonyl)-2-(pyrrolidin-1-yl)-N-(pyrrolidin-1-ylsulfonyl)benzamide], the IC50 in assay [1] lay in the range of 10 to 100 nM. In addition, in assay [2], the half-inhibitory concentration (IC50) fell in the range of 10 to 100 nM and the “MTHFD1/MTHFD2 IC50 ratio” value is recorded as “F (<3)”.
In the case of `COC[C@H]1CN(c2ccc3c4c(c(=O)oc3c2)CN(C(=O)c2ccc(C(=O)NS(=O)(=O)N3CCCC3)c(OC3CCCC3)c2F)CC4)CCN1C` [Example 183, (R)-2-(cyclopentyloxy)-3-fluoro-4-(8-(3-(methoxymethyl)-4-methylpiperazin-1-yl)-5-oxo-1,3,4,5-tetrahydro-2H-chromeno[3,4-c]pyridine-3-carbonyl)-N-(pyrrolidin-1-ylsulfonyl)benzamide], the IC50 in assay [1] was over 5000 nM; in assay [2], 100 to 1000 nM. Besides, the “MTHFD1/MTHFD2 IC50 ratio” value in assay [2] is “H (>9.0 to 30)”.
The corresponding values for `CCOc1c(C(=O)NS(=O)(=O)N2CC3CC3C2)ccc(C(=O)N2CCc3c(c(=O)oc4c(CC)c(N5CCN(C)[C@@H](COC)C5)ccc34)C2)c1F` (stereo partly drawn) [Example 214, N-((3-azabicyclo[3.1.0]hexan-3-yl)sulfonyl)-2-ethoxy-4-(7-ethyl-8-((R)-3-(methoxymethyl)-4-methylpiperazin-1-yl)-5-oxo-1,3,4,5-tetrahydro-2H-chromeno[3,4-c]pyridine-3-carbonyl)-3-fluorobenzamide] are 10 to 100 nM, 10 to 100 nM and “F (<3)”.
As to `COC[C@H]1CN(c2cc(Cl)c3c4c(c(=O)oc3c2C)CN(C(=O)c2ccc(C(=O)NS(=O)(=O)N3CCC[C@H]3COC)c(OC)c2)CC4)CCN1C` [Example 283, 4-(10-chloro-8-((R)-3-(methoxymethyl)-4-methylpiperazin-1-yl)-7-methyl-5-oxo-1,3,4,5-tetrahydro-2H-chromeno[3,4-c]pyridine-3-carbonyl)-2-methoxy-N-(((S)-2-(methoxymethyl)pyrrolidin-1-yl)sulfonyl)benzamide], the IC50 was in the range of 1000 to 5000 nM in assay [1] and 10 to 100 nM in assay [2]. The “MTHFD1/MTHFD2 IC50 ratio” value in assay [2] is listed as “H (>9.0 to 30)”.
For the compound `COC[C@H]1CN(c2ccc3c4c(c(=O)oc3c2C)CN(C(=O)c2cc(Cl)c(C(=O)NS(=O)(=O)N(C)C)c(N3CC5CC5C3)c2)CC4)CCN1C` (stereo partly drawn) [Example 33, 2-(3-azabicyclo[3.1.0]hexan-3-yl)-6-chloro-N-(N,N-dimethylsulfamoyl)-4-(8-((R)-3-(methoxymethyl)-4-methylpiperazin-1-yl)-7-methyl-5-oxo-1,3,4,5-tetrahydro-2H-chromeno[3,4-c]pyridine-3-carbonyl)benzamide], the results for the IC50 in assay [1] and in assay [2] were 100 to 1000 nM and 10 to 100 nM, respectively. For the same compound, the “MTHFD1/MTHFD2 IC50 ratio” value in assay [2] is recorded as “H (>9.0 to 30)”.
The like results for `Cc1c(N2CCN3CCOC[C@H]3C2)cc(C)c2c3c(c(=O)oc12)CN(C(=O)c1ccc(C(=O)NS(=O)(=O)N2CCCC2)c(OC2CCC2)c1)CC3` [Example 21, (R)-2-cyclobutoxy-4-(8-(hexahydropyrazino[2,1-c][1,4]oxazin-8(1 H)-yl)-7,10-dimethyl-5-oxo-1,3,4,5-tetrahydro-2H-chromeno[3,4-c]pyridine-3-carbonyl)-N-(pyrrolidin-1-ylsulfonyl)benzamide] were, in that order, 100 to 1000 nM, 100 to 1000 nM and “F (<3)”.
